Experimental data reported in patent US8273775B2, “Non-steroidal brassinosteroid mimetic” (priority 2006, dated 2012).

Experiments:
[1] = test system: Arabidopsis thaliana seedlings; experiment: Chemical genetics screening for brassinosteroid-related phenotypes; assay type: in vivo; settings: young seedlings
Experimental: A commercial 10.000 compound library (DiverSet, ChemBridge, USA) was screened for brassinosteroid related phenotypes. Three to four Arabidopsis thaliana (L.) Heynh. seeds were sown in 96-well filterplates (Multiscreen HTS MSBVS1210, Millipore, USA) in liquid medium derived from standard Murashige and Skoog (MS) medium in a growth chamber under continuous light (110 μE.m^2. s^1 photosynthetically active radiation, supplied by cool-white fluorescent tungsten tubes; Osram) at 22° C. Three days after germination compounds were added to the 96-well plates at a final concentration of 50 μM. Plants were screened six days after germination for brassinosteroid-related phenotypes.
For further phenotypical analysis, all plants were grown on vertically oriented square plates (Greiner Labortechnik, Austria) with solid medium derived from standard Murashige and Skoog medium under the same conditions. For the hypocotyl-elongation assay, plants were grown in the dark at 22° C. under the same conditions.

ASKθ (group III) = target: T1, ASKθ (group III) (Arabidopsis thaliana, UniProt Q96287); experiment: ASK kinase assay with MBP as substrate, ASKθ; assay type: biochemical; settings: 10 μM abrasin; read-out: residual activity
T1 sequence (Q96287 1-472): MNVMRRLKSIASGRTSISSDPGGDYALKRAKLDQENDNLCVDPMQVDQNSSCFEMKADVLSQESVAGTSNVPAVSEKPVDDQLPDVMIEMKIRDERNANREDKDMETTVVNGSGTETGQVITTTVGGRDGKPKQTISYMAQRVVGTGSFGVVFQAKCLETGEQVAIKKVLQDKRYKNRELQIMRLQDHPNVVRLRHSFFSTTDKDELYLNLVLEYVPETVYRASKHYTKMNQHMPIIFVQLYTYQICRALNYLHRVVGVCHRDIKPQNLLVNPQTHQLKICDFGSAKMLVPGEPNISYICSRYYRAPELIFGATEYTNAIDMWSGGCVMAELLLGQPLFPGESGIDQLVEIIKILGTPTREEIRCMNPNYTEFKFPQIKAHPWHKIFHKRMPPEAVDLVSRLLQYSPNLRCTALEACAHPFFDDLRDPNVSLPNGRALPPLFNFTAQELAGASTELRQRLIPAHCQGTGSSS
Experimental: (§1) Coomassie staining was used as a loading control. b, Autoradiography of kinase assays with nine ASKs with MBP as a substrate in the presence or absence of 10 μM abrasin.
(§2) For in vitro kinase assays, MBP, MBP-BES1, and MBP-bes1 (20 ng each) were incubated with GST-BIN2 or GST-BRI1 kinase (200 ng each) in 20 μl of kinase buffer (20 mM Tris [pH 7.5], 100 mM NaCl, and 12 mM MgCl2) and 10 μCi ^32P-γATP. After incubation at 37° C. for 40 min, the reactions were stopped by adding 20 μl of 2×SDS buffer and boiling at 94° C. for 5 min. Proteins were resolved by a PAGE gel and phosphorylation was detected by exposing the dried gel to X-ray film. Proteins from 35S::bes1-GFP transgenic plants were used for phosphatase (CIP) treatments as described (Fankhauser et al., 1999).
(§3) Besides BIN2, nine additional GSK-3 kinases (also designated ASKs for Arabidopsis SHAGGY-related kinases) divided into four subgroups (I-IV) have been identified in Arabidopsis (Jonak and Hirt, 2002; Yoo et al. 2006). To determine the specificity of abrasin, its effect on the kinase activity of all ASKs was analyzed with myelin basic protein (MBP) as a general substrate.

ASKβ (group III) = target: T2, ASKβ (group III) (Arabidopsis thaliana, UniProt O23145); experiment: ASK kinase assay with MBP as substrate, ASKβ; assay type: biochemical; settings: 10 μM abrasin
T2 sequence (O23145 1-431): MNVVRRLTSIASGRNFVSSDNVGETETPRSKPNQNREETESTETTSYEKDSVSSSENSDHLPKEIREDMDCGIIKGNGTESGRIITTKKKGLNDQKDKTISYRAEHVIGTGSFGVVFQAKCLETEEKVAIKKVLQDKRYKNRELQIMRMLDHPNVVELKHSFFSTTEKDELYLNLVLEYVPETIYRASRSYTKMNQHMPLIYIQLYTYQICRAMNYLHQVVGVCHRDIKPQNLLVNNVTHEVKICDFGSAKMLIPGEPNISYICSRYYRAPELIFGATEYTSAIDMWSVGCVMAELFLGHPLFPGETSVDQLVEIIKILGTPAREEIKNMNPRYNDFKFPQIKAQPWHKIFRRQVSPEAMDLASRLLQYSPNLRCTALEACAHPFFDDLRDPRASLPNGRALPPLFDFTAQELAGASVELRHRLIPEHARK
Experimental: as §1, §2, §3

AtMPK4 = target: T3, AtMPK4 (Arabidopsis thaliana, UniProt Q39024); experiment: Kinase assay with AtMPK4 and MBP as substrate; assay type: biochemical; settings: 10 μM abrasin
T3 sequence (Q39024 1-376): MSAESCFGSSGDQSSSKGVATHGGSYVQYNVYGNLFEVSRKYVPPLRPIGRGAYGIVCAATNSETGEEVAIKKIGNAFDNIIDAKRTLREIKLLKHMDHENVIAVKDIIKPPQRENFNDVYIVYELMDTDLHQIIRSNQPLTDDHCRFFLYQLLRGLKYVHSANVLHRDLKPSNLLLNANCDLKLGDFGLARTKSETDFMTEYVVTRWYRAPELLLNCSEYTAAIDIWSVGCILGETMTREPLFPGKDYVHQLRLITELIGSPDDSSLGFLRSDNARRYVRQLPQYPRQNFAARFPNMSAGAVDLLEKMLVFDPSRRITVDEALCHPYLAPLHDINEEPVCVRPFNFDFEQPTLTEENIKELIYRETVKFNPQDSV
Experimental: Coomassie staining was used as a loading control. b, Autoradiography of kinase assays with nine ASKs with MBP as a substrate in the presence or absence of 10 μM abrasin. The second member of group IV, ASKκ, had no kinase activity and was not included in the analysis. c, Autoradiography of kinase assays with AtMPK4, AtMPK6 and MBP as a substrate (left) and with AtAUR1 kinase and histone H3 as a substrate (right) in the presence or absence of 10 μM abrasin.
as §2, with “Proteins from 35S::bes1-GFP transgenic plants were used for phosphatase (CIP) treatments as described (Fankhauser et al., 1999).” left out
as §3, with “substrate. […]” for “substrate.”

`O=C(O)CCC(=O)Nc1ccc(Br)cn1` [abrasin, 4-[(5-bromo-2-pyridinyl)amino]-4-oxobutanoic acid] was tested, and the “elongation of leaves, petioles and the hypocotyl” value [1] was “strongly induced elongation of leaves, petioles and the hypocotyl in a dosage-dependent manner”, the remaining activity at 10 µM (ASKθ (group III)) was 20% and the “effect on kinase activity” value (ASKβ (group III)) was “not affected”. For the same molecule, the “effect on kinase activity” value (AtMPK4) was “no effect”.
